Paper PMC3912015, “Synthetic Multivalent Antifungal Peptides Effective against Fungi” (PLoS ONE, 2014)
In brackets after ≈: the same amount, converted by molar mass. Read-outs that look alike come from different tables or passages of the source. Bridge positions count the residues as written; N and C are the ends. Peptide text beside a SMILES is read from it. I, II: the chains in the order shown.

Assays:
C57BL6 wild type mice = assay: In vivo acute toxicity
Procedure: Acute toxicity of B4010 was assessed with C57BL6 (6–8 weeks old) wild type mice. Two healthy wild type mice were chosen for each routes of administration. B4010 was delivered through intra-peritoneal (200 mg/kg) or (100 mg/kg) intra-venous routes. Two animals were used for each administration and monitored through 24/48 h to determine mortality, or signs of toxicity.

C. albicans ATCC24433 = assay: microbe, parasite or virus in culture; assay type: cell-based; conditions: ATCC24433, 48 h
Procedure: (§1) The yeast strains were cultivated and suspended in Sabouraud’s Dextrose (SD) broth diluted to one sixth at a starting OD600 = ∼0.08 in a flat-bottomed microtitre plate. A serial dilution of peptide in the same broth was mixed with the inoculum to give a final peptide concentration of 0.4–22 µM. The antifungal activity was assessed by monitoring the OD600 in cycles of 30 minutes and an orbital shaking at 100 rpm using an Infinite M200 microplate reader (Tecan Group Ltd., Switzerland) for 24/48 h at 37°C. Cultures without peptides were used as positive controls and broth alone or with 22 µM peptide served as negative controls. The minimum concentration required for complete inhibition was assessed by both visible observations as well as by measuring the OD600 and taken as the MIC. Each experiment was repeated in triplicates. For studying the effects of metal ions, SD broth was adjusted with appropriate concentrations of salts to yield a final concentration of 100 and 135 mM for NaCl and KCl and 0.5–2 mM for CaCl2 and MgCl2. MIC determinations were carried out as described above. C. albicans ATCC10231 cells and salts in broth were taken as a positive control. Salts alone (NaCl, KCl, and CaCl2 and MgCl2) in broth or with 22 µM peptide served as a negative control. The effect of 5% human serum on the activities of B4010 against two C. albicans clinical isolates was determined. The human male serum was centrifuged at 13,000 rpm for 10 mins in order to remove the lipids and the supernatant was collected. The MIC values against clinical isolates of C. albicans 2672R and C. albicans 1976R were determined both in standard medium (SD broth) as well as in standard medium containing 5% serum supernatant as before.

C. albicans ATCC10231 = assay: microbe, parasite or virus in culture; assay type: cell-based; conditions: ATCC10231, 48 h; read-out: MIC in µM against Ca 10231
Procedure: as §1

C. albicans DF1976R = assay: microbe, parasite or virus in culture; assay type: cell-based; conditions: DF1976R, 48 h; read-out: MIC in µM against Ca DF1976R
Procedure: as §1

C. albicans ATCC2091 = assay: microbe, parasite or virus in culture; assay type: cell-based; conditions: ATCC2091, 48 h
Procedure: as §1

C. albicans DF2672R = assay: microbe, parasite or virus in culture; assay type: cell-based; conditions: DF2672R, 48 h; read-out: MIC in µM against Ca 2672R
Procedure: as §1

[1] = system: clinical isolates of C. albicans 2672R and C. albicans 1976R; assay: MIC against two clinical isolates, with or without 5% human serum; assay type: cell-based; conditions: 48 h
Procedure: as §1

## CC(C)[C@H](NC(=O)[C@H](CCCCN)NC(=O)[C@H](CCCNC(=N)N)NC(=O)CNC(=O)[C@@H](N)CCCNC(=N)N)C(=O)N[C@H](C(=O)N[C@@H](CCCNC(=N)N)C(=O)N[C@@H](CCCNC(=N)N)C(=O)NCCCC[C@H](NC(=O)[C@H](CCCNC(=N)N)NC(=O)[C@H](CCCNC(=N)N)NC(=O)[C@@H](NC(=O)[C@@H](NC(=O)[C@H](CCCCN)NC(=O)[C@H](CCCNC(=N)N)NC(=O)CNC(=O)[C@@H](N)CCCNC(=N)N)C(C)C)C(C)C)C(=O)NCCCC[C@H](NC(=O)[C@H](CCCCNC(=O)[C@H](CCCNC(=N)N)NC(=O)[C@H](CCCNC(=N)N)NC(=O)[C@@H](NC(=O)[C@@H](NC(=O)[C@H](CCCCN)NC(=O)[C@H](CCCNC(=N)N)NC(=O)CNC(=O)[C@@H](N)CCCNC(=N)N)C(C)C)C(C)C)NC(=O)[C@H](CCCNC(=N)N)NC(=O)[C@H](CCCNC(=N)N)NC(=O)[C@@H](NC(=O)[C@@H](NC(=O)[C@H](CCCCN)NC(=O)[C@H](CCCNC(=N)N)NC(=O)CNC(=O)[C@@H](N)CCCNC(=N)N)C(C)C)C(C)C)C(=O)N[C@@H](CCCCN)C(=O)O)C(C)C [B4010] (I: H-RGRKVVRRKKK-OH / II: H-RGRKVVRRK / III: H-RGRKVVRR / IV: H-RGRKVVRR; amide I:9-IV:C, I:10-II:C, II:9-III:C; N-terminus and C-terminus assumed)
C57BL6 wild type mice; IP 200 mg/kg
  acute toxicity: no sign of mortality, morbidity or toxicity
C57BL6 wild type mice; IV 100 mg/kg
  acute toxicity: no sign of mortality, morbidity or toxicity
C. albicans ATCC24433; read-out: MIC
  MIC: 1.4 µM (≈ 6.39 µg/mL)
C. albicans ATCC24433; read-out: MIC in µM against Ca 24433
  MIC: 1.4 µM (≈ 6.39 µg/mL)
C. albicans ATCC10231
  MIC: 1.4 µM (≈ 6.39 µg/mL)
C. albicans DF1976R
  MIC: 0.37 µM (≈ 1.69 µg/mL)
C. albicans ATCC2091; read-out: MIC
  MIC: 0.7 µM (≈ 3.19 µg/mL)
C. albicans ATCC2091; read-out: MIC in µM against Ca 2091
  MIC: 0.7 µM (≈ 3.19 µg/mL)
C. albicans DF2672R
  MIC: 0.37 µM (≈ 1.69 µg/mL)
[1]
  MIC: 0.37 µM (≈ 1.69 µg/mL)
